Data from ChEMBL document CHEMBL1147784, “Crystal structure of human ERK2 complexed with a pyrazolo[3,4-c]pyridazine derivative” (Bioorg Med Chem Lett, 2006).

Each molecule was assayed against Mitogen-activated protein kinase 1 (Homo sapiens, UniProt P28482) (assay: Inhibitory activity against human ERK2).
Mitogen-activated protein kinase 1, sequence (P28482 whole entry): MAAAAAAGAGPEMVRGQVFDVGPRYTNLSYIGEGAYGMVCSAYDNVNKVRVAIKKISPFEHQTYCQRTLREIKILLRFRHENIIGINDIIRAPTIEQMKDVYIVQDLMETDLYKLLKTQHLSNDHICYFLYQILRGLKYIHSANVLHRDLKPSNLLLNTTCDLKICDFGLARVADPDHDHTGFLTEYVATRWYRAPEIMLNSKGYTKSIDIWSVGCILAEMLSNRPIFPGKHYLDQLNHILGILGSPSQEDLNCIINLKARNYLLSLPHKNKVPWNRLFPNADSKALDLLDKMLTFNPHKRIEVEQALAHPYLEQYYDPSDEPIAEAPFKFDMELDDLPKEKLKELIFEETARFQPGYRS
Molecule `Cn1nc(N)c2cc(-c3c(-c4ccccc4)nn4ccccc34)nnc21` has an IC50 of 1400 nM. With `Nc1nn(CCO)c2nnc(-c3c(-c4ccccc4)nn4ccccc34)cc12` the IC50 was 5100 nM. For `C=CCn1nc(N)c2cc(-c3c(-c4ccccc4)nn4ccccc34)nnc21`, the IC50 was 560 nM.
